Results taken from patent publication US20230047816A1 (priority 2018, published 2023).

Molecular target: Recombinant full length human PFKFB3 (Homo sapiens, UniProt Q16875)
Assay: PFKFB3 kinase activity assay (ADP production, ADP-Glo)

Sequence of Recombinant full length human PFKFB3 (Q16875 whole entry): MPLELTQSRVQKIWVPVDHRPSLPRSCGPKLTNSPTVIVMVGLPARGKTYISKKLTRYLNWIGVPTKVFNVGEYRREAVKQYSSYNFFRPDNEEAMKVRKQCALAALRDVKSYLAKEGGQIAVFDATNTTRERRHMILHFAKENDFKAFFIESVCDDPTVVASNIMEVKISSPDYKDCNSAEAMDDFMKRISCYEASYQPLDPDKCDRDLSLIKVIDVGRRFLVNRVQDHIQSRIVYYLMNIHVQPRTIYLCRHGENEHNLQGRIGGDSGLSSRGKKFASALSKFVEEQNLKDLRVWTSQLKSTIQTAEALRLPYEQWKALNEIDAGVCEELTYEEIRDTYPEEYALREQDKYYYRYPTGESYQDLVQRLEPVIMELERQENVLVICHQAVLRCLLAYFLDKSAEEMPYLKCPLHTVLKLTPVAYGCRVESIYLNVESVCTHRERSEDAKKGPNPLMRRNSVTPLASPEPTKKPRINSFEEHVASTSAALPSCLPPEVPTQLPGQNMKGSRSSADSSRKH

SMILES | IC50 [µM]
O=C(O)c1ccc(C(=O)Nc2cc(-c3ccccc3)ccc2C(=O)O)c(C(=O)O)c1 [Example 5, 4-({4-carboxy-[1,1′-biphenyl]-3-yl}carbamoyl)benzene-1,3-dicarboxylic acid] | 0.5 to 2
CN1CCC(OC(=O)c2ccc(-c3ccc(Cl)cc3Cl)cc2NC(=O)c2cc(O)c(C(=O)O)cc2C(=O)O)C1 (stereo not shown) [Example 67, 4-[(2′,4′-dichloro-4-{[(1-methylpyrrolidin-3-yl)oxy]carbonyl}-[1,1′-biphenyl]-3-yl)carbamoyl]-6-hydroxybenzene-1,3-dicarboxylic acid] | < 0.5
COc1ccc(-c2c(C)sc(N3C(=O)c4ccc(C(=O)NCC(=O)O)cc4C3=O)c2C#N)cc1 [compound 149, 2-(2-(3-cyano-4-(4-methoxyphenyl)-5-methylthiophen-2-yl)-1,3-dioxoisoindoline-5-carboxamido)acetic acid] | < 20
O=C(O)c1cc(C(=O)O)c(C(=O)Nc2cc(-c3ccc(F)c(F)c3)ccc2O)cc1O [Example 27, 4-((3′,4′-difluoro-4-hydroxy-[1,1′-biphenyl]-3-yl)carbamoyl)-6-hydroxyisophthalic acid] | < 0.5
O=C(O)c1cc(C(=O)O)c(C(=O)Nc2cc(N3CC4CCC3C4)ccc2C(=O)O)cc1O (stereo not shown) [Example 58, 4-[(5-{2-azabicyclo[2.2.1]heptan-2-yl}-2-carboxyphenyl)carbamoyl]-6-hydroxybenzene-1,3-dicarboxylic acid] | < 0.5
CS(=O)(=O)NC(=O)c1ccc2c(c1)C(=O)N(c1cc(-c3ccc(F)c(F)c3)ccc1C(=O)OCCN1CCCC1)C2 [Compound 109, 3′,4′-Difluoro-3-(6-methanesulfonylaminocarbonyl-1-oxo-1,3-dihydroisoindol-2-yl)biphenyl-4-carboxylic acid 2-pyrrolidin-1-yl-ethyl ester] | < 20
CS(C)(=O)=NC(=O)c1ccc(C(=O)O)c(C(=O)Nc2cc(-c3ccc(F)c(F)c3)ccc2C(=O)O)c1 [Example 36, 3-(2-carboxy-5-{[methyl(methylidene)oxo-λ^6-sulfanyl]carbamoyl}benzamido)-3′,4′-difluoro-[1,1′-biphenyl]-4-carboxylic acid] | 0.5 to 2
O=C(O)c1cc(C(=O)Nc2cc(-c3ccc(Cl)cc3Cl)ccc2C(=O)O)c(C(=O)O)cc1O [Example 44, 2-({4-carboxy-2′,4′-dichloro-[1,1′-biphenyl]-3-yl}carbamoyl)-5-hydroxybenzene-1,4-dicarboxylic acid] | < 0.5
CN(C)C(=O)c1cc(C(=O)O)c(O)cc1C(=O)Nc1cc(-c2ccc(Cl)cc2Cl)ccc1C(=O)O [Example 32, 3-(4-carboxy-2-(dimethylcarbamoyl)-5-hydroxybenzamido)-2′,4′-dichloro-[1,1′-biphenyl]-4-carboxylic acid] | 0.5 to 2
O=C(NS(=O)(=O)c1ccccc1)c1ccc2c(c1)C(=O)N(c1ccc(-c3ccccc3)cc1-c1nnn[nH]1)C2=O [Compound 135, N-(Benzenesulfonyl)-2-(3-(1H-tetrazol-5-yl)-[1,1′-biphenyl]-4-yl)-1,3-dioxo-2,3-dihydro-1H-isoindole-5-carboxamide] | 5 to 20
COC(=O)c1ccc(-c2ccc(F)c(F)c2)cc1N1Cc2ccc(-n3cnnn3)cc2C1=O [Compound 121, 3′,4′-Difluoro-3-(1-oxo-6-tetrazol-1-yl-1,3-dihydroisoindol-2-yl)biphenyl-4-carboxylic acid methyl ester] | < 20
O=C1c2ccc(-c3c[nH]nn3)cc2C(=O)N1c1cc(-c2ccccc2)ccc1-c1nnn[nH]1 [Example 54] | 2 to 5
COc1ccc(-c2c(C)sc(N3C(=O)c4ccc(C(=O)N[C@@H](Cc5ccccc5)C(=O)O)cc4C3=O)c2C#N)cc1 [Compound 137, (2S)-2-({2-[3-Cyano-4-(4-methoxyphenyl)-5-methyl-thiophen-2-yl]-1,3-dioxo-2,3-dihydro-1H-isoindole-5-carbonyl}-amino)-3-phenylpropanoic acid] | 0.5 to 2
O=C(O)c1ccc(-c2ccc(F)c(F)c2)cc1NC(=O)c1cc(-c2cnn[nH]2)ccc1C(=O)O [Example 21, 3-(2-carboxy-5-(1H-1,2,3-triazol-5-yl)benzamido)-3′,4′-difluoro-[1,1′-biphenyl]-4-carboxylic acid] | < 0.5
CNCCOC(=O)c1cc(-c2ccccc2)ccc1N1C(=O)c2ccc(-c3c[nH]nn3)cc2C1=O [Compound 81, 4-[1,3-Dioxo-5-(1H-[1,2,3]triazol-4-yl)-1,3-dihydroisoindol-2-yl]biphenyl-3-carboxylic acid 2-methylamino-ethyl ester] | < 20
CN(C)CCOC(=O)c1ccc(-c2ccc(F)c(F)c2)cc1N1Cc2ccc(C(=O)O)cc2C1=O [Compound 120, 2-[4-(2-Dimethylamino-ethoxycarbonyl)-3′,4′-difluorobiphenyl-3-yl]-3-oxo-2,3-dihydro-1H-isoindole-5-carboxylic Acid] | 5 to 20
COc1ccc(-c2c(C)sc(N3C(=O)c4ccc(C(=O)N[C@H](C(=O)O)C(C)C)cc4C3=O)c2C#N)cc1 [Example 19] | 5 to 20
O=C1c2ccc(-c3c[nH]nn3)cc2C(=O)N1c1ccc(-c2ccccc2)cn1 [Compound 86, 2-(5-Phenylpyridin-2-yl)-5-(1H-[1,2,3]triazol-4-yl)-isoindole-1,3-dione] | < 20
O=C(O)c1cc(C(=O)Nc2cc(-c3ccc(F)c(F)c3)ccc2C(=O)O)c(C(=O)O)cc1O [Example 28, 2-({4-carboxy-3′,4′-difluoro-[1,1′-biphenyl]-3-yl}carbamoyl)-5-hydroxybenzene-1,4-dicarboxylic acid] | < 0.5
CC1(C)CCC(c2ccc(C(=O)O)c(NC(=O)c3cc(F)c(C(=O)O)cc3C(=O)O)c2)CC1 [Example 63, 4-{[2-carboxy-5-(4,4-dimethylcyclohexyl)phenyl]carbamoyl}-6-fluorobenzene-1,3-dicarboxylic acid] | < 0.5
COc1ccc(-c2c(C)sc(NC(=O)c3ccc(C(=O)O)cc3C(=O)O)c2C#N)cc1 [Example 30, 4-{[3-cyano-4-(4-methoxyphenyl)-5-methylthiophen-2-yl]carbamoyl}benzene-1,3-dicarboxylic acid] | < 0.5
COc1ccc(-c2c(C)sc(NC(=O)c3cc(O)c(C(=O)O)cc3C(=O)O)c2C#N)cc1 [Example 33, 4-((3-cyano-4-(4-methoxyphenyl)-5-methylthiophen-2-yl)carbamoyl)-6-hydroxyisophthalic acid] | < 0.5
COC(=O)c1ccc(-c2ccc(F)c(F)c2)cc1N1Cc2ccc(-c3nnn[nH]3)cc2C1=O [Compound 99, 3′,4′-Difluoro-3-[1-oxo-6-(1H-tetrazol-5-yl)-1,3-dihydroisoindol-2-yl]biphenyl-4-carboxylic acid methyl ester] | 5 to 20
O=C1c2ccc(-c3c[nH]nn3)cc2C(=O)N1c1cc(-c2ccc(F)cc2)c(-c2ccccc2)cn1 [compound 146, 2-(4-(4-fluorophenyl)-5-phenylpyridin-2-yl)-5-(1H-1,2,3-triazol-4-yl)isoindoline-1,3-dione] | < 20
N#Cc1c(NC(=O)c2ccc(C(=O)O)cc2C(N)=O)sc(-c2ccccc2)c1-c1ccccc1 [Example 11, 3-carbamoyl-4-[(3-cyano-4,5-diphenylthiophen-2-yl)carbamoyl]benzoic acid] | < 0.5

Continued, values first:

IC50 [µM] | SMILES
0.5 to 2 | COC(=O)c1cc(-c2ccccc2)c(OC)cc1N1C(=O)c2ccc(C(=O)O)cc2C1=O [Example 42]
< 20 | CCOC(=O)c1ccc(-c2ccc(F)c(F)c2)cc1N1C(=O)c2ccc(-c3cnn[nH]3)cc2C1=O [compound 167, ethyl 3-[1,3-dioxo-5-(1H-1,2,3-triazol-5-yl)-1,3-dihydro-2H-isoindol-2-yl]-3′,4′-difluoro[1,1′-biphenyl]-4-carboxylate]
2 to 5 | CN(C)CCOC(=O)c1ccc(-c2ccccc2)cc1N1C(=O)c2ccc(-c3c[nH]nn3)cc2C1=O [Example 66]
5 to 20 | CC(C)OC(=O)c1ccc(-c2ccccc2)cc1N1C(=O)c2ccc(-c3nnn[nH]3)cc2C1=O [Compound 96, 3-[1,3-Dioxo-5-(1H-tetrazol-5-yl)-1,3-dihydroisoindol-2-yl]biphenyl-4-carboxylic acid isopropyl ester]
2 to 5 | O=C(OCCN1CCCC1)c1ccc(-c2ccccc2)cc1N1C(=O)c2ccc(-c3c[nH]nn3)cc2C1=O [Compound 68, 3-[1,3-Dioxo-5-(1H-[1,2,3]triazol-4-yl)-1,3-dihydroisoindol-2-yl]biphenyl-4-carboxylic acid 2-pyrrolidin-1-yl-ethyl ester]
< 0.5 | CS(=O)(=O)NC(=O)c1ccc2c(c1)C(=O)N(c1cc(-c3ccccc3)ccc1C(=O)O)C2 [Compound 104, 3-(6-Methanesulfonylaminocarbonyl-1-oxo-1,3-dihydroisoindol-2-yl)biphenyl-4-carboxylic Acid]
2 to 5 | O=C(NS(=O)(=O)c1ccccc1)c1ccc2c(c1)C(=O)N(c1ccc(-c3ccccc3)cc1C(=O)O)C2=O [Example 22]
2 to 5 | NC(=O)c1ccc2c(c1)C(=O)N(c1ccc(-c3ccccc3)cc1C(=O)O)C2=O [Example 27]
5 to 20 | Cn1cncc1-c1ccc(N2C(=O)c3ccc(-c4c[nH]nn4)cc3C2=O)c(C(=O)O)c1 [Example 61]
< 20 | O=C(O)c1ccc2c(c1)C(=O)N(c1cc(-c3ccc(F)c(F)c3)ccc1C(=O)O)C2 [Compound 126, 2-(4-Carboxy-3′,4′-difluoro-biphenyl-3-yl)-3-oxo-2,3-dihydro-1H-isoindole-5-carboxylic acid]
< 0.5 | O=C(O)c1ccc2c(c1)C(=O)N(c1cc(-c3cccnc3)ccc1C(=O)O)C2=O [Example 52]
2 to 5 | NC(=O)c1ccc(-c2ccccc2)cc1N1C(=O)c2ccc(-c3nnn[nH]3)cc2C1=O [Compound 98, 3-[1,3-Dioxo-5-(1H-tetrazol-5-yl)-1,3-dihydroisoindol-2-yl]biphenyl-4-carboxylic acid amide]
< 0.5 | O=C(O)c1ccc2c(c1)C(=O)N(c1ccc(-c3c[nH]cn3)cc1C(=O)O)C2=O [Compound 75, 2-[2-Carboxy-4-(1H-imidazol-4-yl)-phenyl]-1,3-dioxo-2,3-dihydro-1H-isoindole-5-carboxylic Acid]
2 to 5 | O=C(O)c1ccc(-c2ccc(F)cc2)cc1N1C(=O)c2ccc(-c3c[nH]nn3)cc2C1=O [Example 57]
< 0.5 | O=C(O)c1ccc(-c2ccccc2)cc1N1C(=O)c2ccc(-c3c[nH]nn3)cc2C1=O [Example 59]
